Measured values taken from ChEMBL document CHEMBL5233262, “Anti-inflammatory activity of naturally occuring diarylheptanoids - A review” (Bioorg Med Chem, 2021).
≈ marks a conversion by molar mass, not a printed value. Each block holds one compound with its values, some of them ahead of it.

Columns and labels:
[1] = Antiinflammatory activity in C57BL/6 mouse BMDC cells assessed as inhibition of imiquimod-induced IL-6 expression level at 10 uM and measured after 12 hrs by western blot analysis; format: functional; conditions: C57BL/6, BMDC
[2] = Antiinflammatory activity in C57BL/6 mouse BMDC cells assessed as inhibition of imiquimod-induced IL-1beta expression level at 10 uM and measured after 12 hrs by western blot analysis; format: functional; conditions: C57BL/6, BMDC
[3] = Antiinflammatory activity in C57BL/6 mouse BMDC cells assessed as inhibition of imiquimod-induced IL-6 mRNA expression level at 10 uM and measured after 12 hrs by qpCR analysis; format: functional; conditions: C57BL/6, BMDC
[4] = Antiinflammatory activity in C57BL/6 mouse BMDC cells assessed as inhibition of imiquimod-induced IL-12 expression level at 10 uM and measured after 12 hrs by western blot analysis; format: functional; conditions: C57BL/6, BMDC
[5] = Antiinflammatory activity in C57BL/6 mouse BMDC cells assessed as inhibition of imiquimod-induced IL-12 mRNA expression level at 10 uM and measured after 12 hrs by qpCR analysis; format: functional; conditions: C57BL/6, BMDC
[6] = Antiinflammatory activity in C57BL/6 mouse BMDC cells assessed as inhibition of imiquimod-induced IL-1beta mRNA expression level at 10 uM and measured after 12 hrs by qpCR analysis; format: functional; conditions: C57BL/6, BMDC
Mus musculus [7] = assay: Antiinflammatory activity in TPA-induced ear edema ICR mouse model assessed as inhibition of ear inflammation at 1 ug, TOP for 30 mins followed by TPA addition and measured after 6 hrs; format: functional; conditions: dose 1 µg, time 390 min, 6.5 h
RAW264.7 [8] = assay: Antiinflammatory activity in mouse RAW264.7 cells assessed as inhibition of LPS-induced NO production; format: functional, cell-based
RAW264.7 [9] = assay: Antiinflammatory activity in mouse RAW264.7 cells assessed as inhibition of LPS-induced COX-2 expression at 5 ug/ml; format: functional
RAW264.7 [10] = assay: Antiinflammatory activity in mouse RAW264.7 cells assessed as inhibition of LPS-induced TNFalpha expression at 5 ug/ml; format: functional
RAW264.7 [11] = assay: Antiinflammatory activity in mouse RAW264.7 cells assessed as inhibition of LPS-induced IL-1beta expression at 5 ug/ml; format: functional
RAW264.7 [12] = assay: Antiinflammatory activity in mouse RAW264.7 cells assessed as inhibition of LPS-induced NF-kappaB expression at 5 ug/ml; format: functional
RAW264.7 [13] = assay: Antiinflammatory activity in mouse RAW264.7 cells assessed as inhibition of LPS-induced iNOS expression at 5 ug/ml; format: functional
Rattus norvegicus [14] = assay: Antiinflammatory activity in rat model of ethyl phenylpropiolate-induced ear edema assessed as reduction in ear thickness administered topically and measured after 30 mins; format: functional; conditions: 0.5 h
Rattus norvegicus [15] = assay: Antiinflammatory activity in rat model of ethyl phenylpropiolate-induced ear edema assessed as reduction in ear thickness administered topically and measured after 1 hr; format: functional
Mus musculus [16] = assay: Antiinflammatory activity in ICR mouse model of thioacetamide-induced hepatotoxicity assessed as reduction in TNF-alpha expression at 1 mg/kg,ip pretreated with compound followed by TA induction and measured after 24 hrs by RT-PCR analysis; format: functional; parameters: scale not given: the % may be the effect or the level left
Rattus norvegicus [17] = assay: Antiinflammatory activity in rat model of carrageenan-induced hind paw edema assessed as reduction in paw thickness at 100 mg/kg,ip 30mins before carrageenin exposure and measured after 3 hrs; format: functional; parameters: scale not given: the % may be the effect or the level left
RAW264.7 [18] = assay: Antiinflammatory activity in mouse RAW264.7 cells assessed as inhibition of LPS-induced NO production incubated for 20 hrs by Griess reagent based microplate reader analysis; format: functional, cell-based; conditions: RAW264.7, 20 h
Zingiber officinale = assay: Inhibition of prostaglandin biosynthesis in ginger; format: functional, organism-based
RAW264.7 [19] = assay: Antiinflammatory activity in mouse RAW264.7 cells assessed as inhibition of LPS-induced iNOS mRNA expression at 25 uM incubated for 12 hrs by PCR analysis; format: functional
RAW264.7 [20] = assay: Antiinflammatory activity in mouse RAW264.7 cells assessed as inhibition of KLA-induced TNFalpha expression at 0.02 mg/ml and measured after 24 hrs by ELISA; format: functional
RAW264.7 [21] = assay: Antiinflammatory activity in mouse RAW264.7 cells assessed as inhibition of LPS-induced NO production at 25 uM incubated for 24 hrs by Griess reagent based assay; format: functional
HepG2 [22] = assay: Antiinflammatory activity in human HepG2 cells assessed as inhibition of LPS-induced IL-6 mRNA expression at 10 ug/ml preincubated for 1 hrs followed by LPS stimulation and measured after 24 hrs by qPCR analysis; format: functional; conditions: time 25 hrs
[23] = Antiinflammatory activity in human PBMC cells assessed as inhibition of LPS-induced TNFalpha production at 25 uM incubated for 18 hrs by ELISA; format: functional
RAW264.7 [24] = assay: Antiinflammatory activity in mouse RAW264.7 cells assessed as inhibition of LPS-induced COX-2 mRNA expression at 25 uM incubated for 12 hrs by PCR analysis; format: functional
HepG2 [25] = assay: Antiinflammatory activity in human HepG2 cells assessed as inhibition of LPS-induced IL-1beta mRNA expression at 10 ug/ml preincubated for 1 hrs followed by LPS stimulation and measured after 24 hrs by qPCR analysis; format: functional; conditions: time 25 hrs
[26] = Antiinflammatory activity in human PBMC cells assessed as inhibition of LPS-induced IL-1beta production at 25 uM incubated for 18 hrs by ELISA; format: functional
HepG2 [27] = assay: Antiinflammatory activity in human HepG2 cells assessed as inhibition of LPS-induced TNFalpha mRNA expression at 10 ug/ml preincubated for 1 hrs followed by LPS stimulation and measured after 24 hrs by qPCR analysis; format: functional; conditions: time 25 hrs
RAW264.7 [28] = assay: Cytotoxicity against mouse RAW264.7 cells assessed as reduction in cell viability at 0.07 to 0.1 mg/ml incubated for 24 hrs by MTT assay; format: toxicity, cell-based; conditions: raw264.7, 24 h, dose 0.07-0.1 mg/ml
HUVEC [29] = assay: Antiinflammatory activity in human HUVEC cells assessed as LPS induced VCAM-1 expression at 5 to 20 uM preincubated for 1 hrs followed by LPS stimulation and measured after 6 hrs by fluorescence analysis; format: functional; conditions: dose 5-20 µM, time 7 hrs
HUVEC [30] = assay: Antiinflammatory activity in human HUVEC cells assessed as TNFalpha induced VCAM-1 expression at 5 to 20 uM preincubated for 1 hrs followed by TNFalpha stimulation and measured after 6 hrs by fluorescence analysis; format: functional; conditions: dose 5-20 µM, time 7 hrs
HUVEC [31] = assay: Antiinflammatory activity in human HUVEC cells assessed as TNFalpha induced NF-kappaB transactivation at 5 to 20 uM preincubated for 1 hrs followed by TNFalpha stimulation and measured after 6 hrs by fluorescence analysis; format: functional; conditions: dose 5-20 µM, time 7 hrs
HUVEC [32] = assay: Antiinflammatory activity in human HUVEC cells assessed as LPS induced NF-kappaB transactivation at 5 to 20 uM preincubated for 1 hrs followed by LPS stimulation and measured after 6 hrs by fluorescence analysis; format: functional; conditions: dose 5-20 µM, time 7 hrs
Mus musculus [33] = assay: Protective activity in Pde6brd10 mouse model of Retinitis pigmentosa assessed as decrease in IL-12 production in retina at 5 mg/kg,ip for 14 days by ELISA; format: functional; parameters: scale not given: the % may be the effect or the level left; conditions: time 14 day
Mus musculus [34] = assay: Protective activity in Pde6brd10 mouse model of Retinitis pigmentosa assessed as decrease in IL-1beta production in retina at 5 mg/kg,ip for 14 days by ELISA; format: functional; parameters: scale not given: the % may be the effect or the level left; conditions: time 14 day
Mus musculus [35] = assay: Protective activity in Pde6brd10 mouse model of Retinitis pigmentosa assessed as decrease in TNFalpha production in retina at 5 mg/kg,ip for 14 days by ELISA; format: functional; parameters: scale not given: the % may be the effect or the level left; conditions: time 14 day
Mus musculus [36] = assay: Protective activity in Pde6brd10 mouse model of Retinitis pigmentosa assessed as decrease in IL-6 gene expression level in retina at 5 mg/kg,ip for 14 days by qRT-PCR analysis; format: functional; parameters: scale not given: the % may be the effect or the level left; conditions: time 14 day
Mus musculus [37] = assay: Protective activity in Pde6brd10 mouse model of Retinitis pigmentosa assessed as decrease in TNF-alpha gene expression level in retina at 5 mg/kg,ip for 14 days by qRT-PCR analysis; format: functional; parameters: scale not given: the % may be the effect or the level left; conditions: time 14 day
Mus musculus [38] = assay: Protective activity in Pde6brd10 mouse model of Retinitis pigmentosa assessed as decrease in NO production in retina at 5 mg/kg,ip for 14 days by Griess assay; format: functional; parameters: scale not given: the % may be the effect or the level left; conditions: time 14 day
Mus musculus [39] = assay: Protective activity in Pde6brd10 mouse model of Retinitis pigmentosa assessed as decrease in NF-kappaB expression level in retina at 5 mg/kg,ip for 14 days by Western blot analysis; format: functional; parameters: scale not given: the % may be the effect or the level left; conditions: time 14 day
Mus musculus [40] = assay: Protective activity in Pde6brd10 mouse model of Retinitis pigmentosa assessed as decrease in IL-12 gene expression level in retina at 5 mg/kg,ip for 14 days by qRT-PCR analysis; format: functional; parameters: scale not given: the % may be the effect or the level left; conditions: time 14 day
Mus musculus [41] = assay: Protective activity in Pde6brd10 mouse model of Retinitis pigmentosa assessed as decrease in IL-1beta gene expression level in retina at 5 mg/kg,ip for 14 days by qRT-PCR analysis; format: functional; parameters: scale not given: the % may be the effect or the level left; conditions: time 14 day
Mus musculus [42] = assay: Protective activity in Pde6brd10 mouse model of Retinitis pigmentosa assessed as decrease in IL-6 production in retina at 5 mg/kg,ip for 14 days by ELISA; format: functional; parameters: scale not given: the % may be the effect or the level left; conditions: time 14 day

SMILES: O=C(/C=C/C=C/c1ccc(O)cc1)CCc1ccc(O)cc1
- inhibition at 10 µM [1]: 58%
- inhibition at 10 µM [2]: 56%
- inhibition at 10 µM [3]: 61%
- inhibition at 10 µM [4]: 31%
- inhibition at 10 µM [5]: 69%
- inhibition at 10 µM [6]: 86%

- IC50 (RAW264.7 [8]): 5 µg/mL (≈ 17.8 µM)
SMILES: O=C(/C=C/CCc1ccc(O)cc1)CCc1ccccc1
- ID50 (Mus musculus [7]): 0.8 µmol
- inhibition at 5 µg/mL (RAW264.7 [9]): 69%
- inhibition at 5 µg/mL (RAW264.7 [10]): 71%
- inhibition at 5 µg/mL (RAW264.7 [11]): 70%
- inhibition at 5 µg/mL (RAW264.7 [12]): 50%
- inhibition at 5 µg/mL (RAW264.7 [13]): 69%

SMILES: OC(/C=C/C=C/c1ccccc1)CCc1ccccc1 (centres undefined)
- ID50 (Rattus norvegicus [14]): 129 µg
- ID50 (Rattus norvegicus [15]): 312 µg
- Activity (Mus musculus [16]): 53%
- Activity (Rattus norvegicus [17]): 39%

- IC50 (RAW264.7 [18]): 0.6 µM
- IC50 (Zingiber officinale): 50 µM
SMILES: COc1cc(CC/C=C/C(=O)CCc2ccccc2)ccc1O
- inhibition at 25 µM (RAW264.7 [19]): 75.5%
- inhibition at 20 µg/mL (RAW264.7 [20]): 54%
- ID50 (Mus musculus [7]): 2.2 µmol
- inhibition at 25 µM (RAW264.7 [21]): 50%
- inhibition at 10 µg/mL (HepG2 [22]): 52%
- inhibition at 25 µM [23]: 43%
- inhibition at 25 µM (RAW264.7 [24]): 54.6%
- inhibition at 10 µg/mL (HepG2 [25]): 86%
- inhibition at 25 µM [26]: 85%
- inhibition at 10 µg/mL (HepG2 [27]): 85%
- Activity (RAW264.7 [28]): > 80%

SMILES: COc1cc(CC/C=C/C(=O)CCc2ccc(O)c(OC)c2)ccc1O
- Activity (HUVEC [29]): 17%
- Activity (HUVEC [30]): 26%
- Activity (HUVEC [31]): 7%
- Activity (HUVEC [32]): 8%

SMILES: COc1c2cc(c(OC)c1O)-c1cc(ccc1O)CC[C@@H](O)CCCC2
- Activity (Mus musculus [33]): 12%
- Activity (Mus musculus [34]): 22%
- Activity (Mus musculus [35]): 16%
- Activity (Mus musculus [36]): 31%
- Activity (Mus musculus [37]): 49%
- Activity (Mus musculus [38]): 21%
- Activity (Mus musculus [39]): 50%
- Activity (Mus musculus [40]): 38%
- Activity (Mus musculus [41]): 41%
- Activity (Mus musculus [42]): 12%
